Source: BindingDB's records for doi:10.1021/ja0277226 (Millennium Pharmaceuticals, 2002)

Key:
[1] = molecular target: T1, Angiotensin-converting enzyme (Sus scrofa, UniProt A1YQ85); experiment: Enzyme Inhibition Assay; conditions: pH 7.5; 22 °C
T1 sequence (A1YQ85 whole entry): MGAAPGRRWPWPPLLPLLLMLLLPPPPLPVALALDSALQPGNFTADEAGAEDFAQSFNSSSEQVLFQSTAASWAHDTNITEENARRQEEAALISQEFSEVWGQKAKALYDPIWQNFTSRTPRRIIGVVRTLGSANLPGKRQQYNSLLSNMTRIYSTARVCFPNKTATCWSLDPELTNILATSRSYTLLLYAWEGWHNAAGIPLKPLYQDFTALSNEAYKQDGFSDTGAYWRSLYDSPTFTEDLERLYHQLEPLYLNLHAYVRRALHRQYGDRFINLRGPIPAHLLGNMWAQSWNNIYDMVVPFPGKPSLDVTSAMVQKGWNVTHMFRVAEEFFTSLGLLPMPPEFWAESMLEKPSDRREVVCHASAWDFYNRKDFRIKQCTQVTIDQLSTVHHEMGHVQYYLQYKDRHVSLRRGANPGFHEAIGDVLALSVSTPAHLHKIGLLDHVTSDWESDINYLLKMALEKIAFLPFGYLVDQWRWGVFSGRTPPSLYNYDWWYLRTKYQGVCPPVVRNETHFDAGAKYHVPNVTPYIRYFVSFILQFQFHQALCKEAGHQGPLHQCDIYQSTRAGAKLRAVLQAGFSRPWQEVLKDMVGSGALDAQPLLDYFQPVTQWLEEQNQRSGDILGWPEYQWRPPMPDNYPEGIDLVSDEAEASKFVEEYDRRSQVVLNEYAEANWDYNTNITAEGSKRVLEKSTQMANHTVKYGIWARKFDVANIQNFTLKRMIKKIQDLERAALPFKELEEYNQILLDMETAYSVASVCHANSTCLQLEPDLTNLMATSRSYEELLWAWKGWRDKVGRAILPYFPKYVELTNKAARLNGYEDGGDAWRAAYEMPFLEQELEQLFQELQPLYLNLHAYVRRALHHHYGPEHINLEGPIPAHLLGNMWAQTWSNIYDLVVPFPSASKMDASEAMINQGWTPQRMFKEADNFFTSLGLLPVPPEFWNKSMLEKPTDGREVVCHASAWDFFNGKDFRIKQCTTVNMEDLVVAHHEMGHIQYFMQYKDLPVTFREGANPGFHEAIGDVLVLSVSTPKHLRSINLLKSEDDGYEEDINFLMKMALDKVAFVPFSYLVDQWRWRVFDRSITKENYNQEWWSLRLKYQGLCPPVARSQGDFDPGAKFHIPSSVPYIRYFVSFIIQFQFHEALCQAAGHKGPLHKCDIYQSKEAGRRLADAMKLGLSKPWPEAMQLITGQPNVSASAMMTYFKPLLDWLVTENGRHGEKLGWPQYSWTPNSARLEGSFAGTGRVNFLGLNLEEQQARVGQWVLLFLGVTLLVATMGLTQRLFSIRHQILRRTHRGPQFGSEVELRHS
Protocol: (§1) Enzyme assay was conducted in 384-well microplates format. Activity was monitored by measuring increase in fluorescence (excitation @320 nm, emission @405 nm) over a 60 minute time course using a BMG Polarstar Galaxy fluorescent plate reader. Compound IC50 values were determined using 10-pt concentration ranges. Rates of substrate hydrolysis were determined from time courses and converted to percent inhibition. Percent inhibition was plotted versus compound concentration and fit to the four parameter logistic equation by non-linear regression using Prism Graphpad software.

[2] = molecular target: Angiotensin-converting enzyme 2 (Homo sapiens, UniProt Q9BYF1); experiment: Enzyme Inhibition Assay; conditions: pH 6.5; 22 °C
Protocol: as §1

Carboxypeptidase A1 = molecular target: T2, Carboxypeptidase A1 (Bos taurus, UniProt P00730); experiment: CPA Inhibition Assay; conditions: pH 7.5; 22 °C
T2 sequence (P00730 whole entry): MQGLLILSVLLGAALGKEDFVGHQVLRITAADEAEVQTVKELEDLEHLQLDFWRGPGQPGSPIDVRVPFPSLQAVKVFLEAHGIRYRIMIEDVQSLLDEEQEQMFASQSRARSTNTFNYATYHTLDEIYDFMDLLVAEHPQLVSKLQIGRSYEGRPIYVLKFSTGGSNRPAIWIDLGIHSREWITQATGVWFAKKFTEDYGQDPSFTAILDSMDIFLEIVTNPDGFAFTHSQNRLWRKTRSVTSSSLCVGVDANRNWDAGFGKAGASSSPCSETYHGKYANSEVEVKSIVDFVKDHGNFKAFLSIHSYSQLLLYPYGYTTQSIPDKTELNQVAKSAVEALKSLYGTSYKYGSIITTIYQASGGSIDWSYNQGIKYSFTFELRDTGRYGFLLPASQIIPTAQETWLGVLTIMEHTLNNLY
Protocol: as §1, with “Assay for the inhibition of carboxypeptidase A (CPDA)” for “Enzyme assay”, “96-well” for “384-well”, “decrease” for “increase”, “absorbance (328” for “fluorescence (excitation @320 nm, emission @405”, “15” for “60”, “Spectromax 250 absorbance” for “BMG Polarstar Galaxy fluorescent”

Angiotensin-converting enzyme 2, sequence (Q9BYF1 whole entry): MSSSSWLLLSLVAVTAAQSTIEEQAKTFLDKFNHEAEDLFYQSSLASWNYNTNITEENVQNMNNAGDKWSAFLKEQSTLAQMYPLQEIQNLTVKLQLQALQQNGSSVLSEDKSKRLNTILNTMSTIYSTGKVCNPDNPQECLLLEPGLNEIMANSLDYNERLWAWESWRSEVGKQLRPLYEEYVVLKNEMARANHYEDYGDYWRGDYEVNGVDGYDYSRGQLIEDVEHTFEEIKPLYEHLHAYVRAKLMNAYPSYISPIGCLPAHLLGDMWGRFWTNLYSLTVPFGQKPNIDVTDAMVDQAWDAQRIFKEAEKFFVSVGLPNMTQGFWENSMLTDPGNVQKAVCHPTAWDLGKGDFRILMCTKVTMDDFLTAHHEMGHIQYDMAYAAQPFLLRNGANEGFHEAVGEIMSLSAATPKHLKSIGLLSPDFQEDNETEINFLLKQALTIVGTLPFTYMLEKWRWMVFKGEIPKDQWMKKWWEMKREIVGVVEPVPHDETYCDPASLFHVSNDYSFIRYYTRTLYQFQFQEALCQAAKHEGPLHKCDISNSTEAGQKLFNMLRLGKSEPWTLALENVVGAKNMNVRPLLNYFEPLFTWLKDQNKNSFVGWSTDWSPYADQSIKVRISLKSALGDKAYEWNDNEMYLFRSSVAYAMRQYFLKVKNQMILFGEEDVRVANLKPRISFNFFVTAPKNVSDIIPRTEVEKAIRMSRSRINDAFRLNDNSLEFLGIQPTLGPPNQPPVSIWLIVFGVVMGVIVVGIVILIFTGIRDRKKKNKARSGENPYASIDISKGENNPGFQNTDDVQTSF

IC50 [1]	IC50 [2]	IC50 (Carboxypeptidase A1)	Structure (SMILES)
> 10 µM	0.032 µM	> 10 µM	Cc1ccc(Cn2cncc2C[C@H](N[C@@H](CC(C)C)C(=O)O)C(=O)O)cc1 [(2S)-2-{[(1S)-1-carboxy-2-{1-[(4-methylphenyl)methyl]-1H-imidazol-5-yl}ethyl]amino}-4-methylpentanoic acid]
	0.021 µM	> 10 µM	CC(C)C[C@H](N[C@@H](Cc1cncn1Cc1ccc(Cl)cc1)C(=O)O)C(=O)O [(2S)-2-{[(1S)-1-carboxy-2-{1-[(4-chlorophenyl)methyl]-1H-imidazol-5-yl}ethyl]amino}-4-methylpentanoic acid]
> 10 µM	0.01 µM	12 µM	CC(C)C[C@H](N[C@@H](Cc1cncn1C(C)(C)C1CCCCC1)C(=O)O)C(=O)O [(2S)-2-{[(1S)-1-carboxy-2-[1-(2-cyclohexylpropan-2-yl)-1H-imidazol-5-yl]ethyl]amino}-4-methylpentanoic acid]
	0.27 µM		CC(C)C[C@H](N[C@@H](Cc1cncn1CC1CCCCC1)C(=O)O)C(=O)O [(2S)-2-{[(1S)-1-carboxy-2-[1-(cyclohexylmethyl)-1H-imidazol-5-yl]ethyl]amino}-4-methylpentanoic acid]
> 10 µM	0.0042 µM	> 10 µM	Cc1cccc(Cn2cncc2C[C@H](N[C@@H](CC(C)C)C(=O)O)C(=O)O)c1 [(2S)-2-{[(1S)-1-carboxy-2-{1-[(3-methylphenyl)methyl]-1H-imidazol-5-yl}ethyl]amino}-4-methylpentanoic acid]
> 10 µM	0.01 µM	> 10 µM	Cc1ccc(Cn2cncc2C[C@H](N[C@@H](CC(C)C)C(=O)O)C(=O)O)cc1C [(2S)-2-{[(1S)-1-carboxy-2-{1-[(3,4-dimethylphenyl)methyl]-1H-imidazol-5-yl}ethyl]amino}-4-methylpentanoic acid]
	0.052 µM		CC(C)C[C@H](N[C@@H](Cc1cncn1Cc1ccc(OC(F)(F)F)cc1)C(=O)O)C(=O)O [(2S)-2-{[(1S)-1-carboxy-2-(1-{[4-(trifluoromethoxy)phenyl]methyl}-1H-imidazol-5-yl)ethyl]amino}-4-methylpentanoic acid]
	0.3 µM	2.8 µM	CC[C@H](N[C@@H](Cc1cncn1Cc1ccccc1)C(=O)O)C(=O)O [(2S)-2-{[(1S)-2-(1-benzyl-1H-imidazol-5-yl)-1-carboxyethyl]amino}butanoic acid]
	0.076 µM		CC(C)C[C@H](N[C@@H](Cc1cncn1Cc1ccc([N+](=O)[O-])cc1)C(=O)O)C(=O)O [(2S)-2-{[(1S)-1-carboxy-2-{1-[(4-nitrophenyl)methyl]-1H-imidazol-5-yl}ethyl]amino}-4-methylpentanoic acid]
	0.29 µM		Cc1ccccc1Cn1cncc1C[C@H](N[C@@H](CC(C)C)C(=O)O)C(=O)O [(2S)-2-{[(1S)-1-carboxy-2-{1-[(2-methylphenyl)methyl]-1H-imidazol-5-yl}ethyl]amino}-4-methylpentanoic acid]
> 10 µM	0.0014 µM	> 10 µM	Cc1cc(C)cc(Cn2cncc2C[C@H](N[C@@H](CC(C)C)C(=O)O)C(=O)O)c1 [(2S)-2-{[(1S)-1-carboxy-2-{1-[(3,5-dimethylphenyl)methyl]-1H-imidazol-5-yl}ethyl]amino}-4-methylpentanoic acid]
	0.34 µM		O=C(O)[C@H](Cc1ccccc1)N[C@@H](Cc1cncn1Cc1ccccc1)C(=O)O [(2S)-2-{[(1S)-2-(1-benzyl-1H-imidazol-5-yl)-1-carboxyethyl]amino}-3-phenylpropanoic acid]

Structure (SMILES)	IC50 [1]	IC50 [2]	IC50 (Carboxypeptidase A1)
CC(C)C[C@H](N[C@@H](Cc1cncn1Cc1cc(Cl)cc(Cl)c1)C(=O)O)C(=O)O [MLN4760]	> 100 µM	0.00044 µM	27 µM
